Experimental data published in ChEMBL document CHEMBL1135449, “A novel series of hybrid compounds derived by combining 2-aminotetralin and piperazine fragments: binding activity at D2 and D3 receptors” (Bioorg Med Chem Lett, 2002).

Assays:
D(2) dopamine receptor = D(2) dopamine receptor (Homo sapiens, UniProt P14416); test: Tested for the binding constant against cloned human Dopamine receptor D2L in HEK cells by displacing [3H]spiperone; assay type: cell-based, HEK293
D(3) dopamine receptor = D(3) dopamine receptor (Homo sapiens, UniProt P35462); test: Tested for the binding constant against cloned human Dopamine receptor D3 in HEK cells by displacing [3H]spiperone; assay type: cell-based, HEK293
Sequence of D(3) dopamine receptor (P35462 whole entry): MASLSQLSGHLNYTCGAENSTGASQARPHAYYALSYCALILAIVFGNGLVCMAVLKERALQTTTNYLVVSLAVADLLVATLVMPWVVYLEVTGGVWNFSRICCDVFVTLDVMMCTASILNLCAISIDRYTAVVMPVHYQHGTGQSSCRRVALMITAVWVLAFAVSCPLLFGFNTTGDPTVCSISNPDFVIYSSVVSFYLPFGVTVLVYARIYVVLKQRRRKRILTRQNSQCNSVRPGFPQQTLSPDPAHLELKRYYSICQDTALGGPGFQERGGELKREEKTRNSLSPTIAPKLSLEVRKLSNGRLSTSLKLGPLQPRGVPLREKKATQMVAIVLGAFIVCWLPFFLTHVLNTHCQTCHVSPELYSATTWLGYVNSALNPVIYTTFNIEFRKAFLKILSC

Sequence of D(2) dopamine receptor (P14416 whole entry): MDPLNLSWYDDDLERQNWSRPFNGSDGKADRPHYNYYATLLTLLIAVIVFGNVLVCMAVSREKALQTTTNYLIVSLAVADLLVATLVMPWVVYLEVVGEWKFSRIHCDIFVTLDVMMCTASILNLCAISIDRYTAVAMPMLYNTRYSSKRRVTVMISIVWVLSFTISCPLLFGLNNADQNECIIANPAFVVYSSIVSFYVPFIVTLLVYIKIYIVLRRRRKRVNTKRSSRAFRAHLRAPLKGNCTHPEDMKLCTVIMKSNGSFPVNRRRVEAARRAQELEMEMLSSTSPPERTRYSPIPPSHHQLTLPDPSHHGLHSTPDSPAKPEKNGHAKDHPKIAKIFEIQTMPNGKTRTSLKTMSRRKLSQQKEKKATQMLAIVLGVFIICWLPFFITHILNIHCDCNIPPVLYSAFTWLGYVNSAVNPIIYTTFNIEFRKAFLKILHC

Structure (SMILES) | Ki (D(2) dopamine receptor) | Ki (D(3) dopamine receptor)
O=C(NCCN(CCCN1CCN(c2ccccc2)CC1)C1CCc2ccc(O)cc2C1)c1ccccc1 (stereo not drawn) | 354 nM | 55.7 nM
N#CCCCN(CCCN1CCN(c2ccccc2)CC1)C1CCc2ccc(O)cc2C1 (stereo not drawn) | 622 nM | 50.2 nM
CCCN(CCN1CCN(c2cccc(Cl)c2Cl)CC1)C1CCc2ccc(O)cc2C1 (stereo not drawn) | 27.4 nM | 1.13 nM
O=C(NCCCCN(CCCN1CCN(c2ccccc2)CC1)C1CCc2ccc(O)cc2C1)c1ccccc1 (stereo not drawn) | 782 nM | 756 nM
